Data: US20260272899A1 (Bayer Aktiengesellschaft, priority 2024, published 2026)

CCOc1ncc(C)c2c1[C@H](c1ccc(C#N)cc1OC)C(C(N)=O)=C(C)N2 [finerenone, (4S)-4-(4-cyano-2-methoxyphenyl)-5-ethoxy-2,8-dimethyl-1,4-dihydro-1,6-naphthyridine-3-carboxamide]
Sudden death, number of subjects (AE of death or leading to death by preferred term, finerenone n = 2,993): 20
All-cause death, Rate (per 100 py) (No SGLT2i use at baseline, column headed Finerenone n = 2,610): 7.0 per 100 py
Total worsening heart failure events and death from cardiovascular causes: Rate per 100 patient-yr (finerenone N = 3,003): 14.9 per 100 patient-yr
